Test results taken from article PMC4685510, “A Cell Biologist’s Field Guide to Aurora Kinase Inhibitors” (Frontiers in Oncology, 2015).
Entries after “also recorded” stand apart in the source; their conditions may differ. Like-named read-outs stand apart in the source and are kept apart here.

How the values were obtained:
[1] = tested on: pLATS2(Ser 83) in HeLa cells; experiment: Substrate phosphorylation immunofluorescence assay, pLATS2(Ser 83), HeLa; assay type: cell-based, human; conditions: HeLa; for pLATS2 (Ser83) IC50 / IC50: 8 h inhibitor treatment; for IC50: Homo sapiens, 8 h, read-out: pLATS2 (Ser83) IC50
Description: (§1) We employed the protocol described in Figure 3D to analyze substrate phosphorylation in HeLa cells following treatment with all 10 inhibitors in dose–response. Asynchronous cells were incubated with vehicle (DMSO) or different inhibitor doses for 8 h and then fixed and labeled with a mixture of three antibodies directed against pLATS2(Ser 83), pH3(Ser 28), and MPM2 [which detects mitotic phosphoepitopes; ([86])]. While both the anti-pLATS2(Ser 83) and MPM2 antibodies are mouse monoclonals, they are of different IgG subclasses [IgG2b for anti-pLATS2(Ser 83) and IgG1 for MPM2], and can thus be detected with subclass-specific secondary antibodies (Table S3 in Supplementary Material).
(§2) In control mitotic cells, pLATS2(Ser 83) is concentrated in foci around the spindle poles (Figure 3E; top row – green arrow) and pH3(Ser 28) is on the mitotic chromatin (Figure 3E; top row – red arrow). Selective kinase inhibition should result in loss of one signal but not the other, as illustrated by the example images for specific conditions in Figure 3E (middle and bottom rows). Cells were imaged in 4 channels to visualize pLATS2(Ser 83), pH3(Ser 28), MPM2, and DNA (labeled with Hoechst) and mitotic cells were segmented based on their bright MPM2 labeling (Figure 3E). Intensity and area thresholds were set to select the pLATS2(Ser 83) foci and the pH3(Ser 28)-labeled chromatin in their respective channels in DMSO-treated control cells and the same thresholds were applied for inhibitor-treated cells. The mean fluorescence intensity per pixel was measured to assess the activities of the kinases targeting these two substrate phosphorylation sites.
(§3) Twelve thousand HeLa cells, 10,000 U2OS cells, or 8,000 RPE1 cells were seeded into 96-well glass-bottom Sensoplates (Greiner) 16 h before inhibitor addition. Prior to seeding, the glass-bottom plates were coated with poly-L-lysine (Sigma). […] After 8 h cells were fixed with 4% PFA for 20 min at room temperature. The fixed cells were washed with PBS. For immunostaining, cells were permeabilized and blocked with PBS containing 10% normal donkey serum (Jackson ImmunoResearch) and 0.1% Triton-X100 for 1 h at room temperature. Primary antibodies against phospho-LATS2 (Ser 83), phospho-histone H3(Ser 28), and anti-phospho-MPM2 (see Table S3 in Supplementary Material) were incubated for 1 h at room temperature. […] Cells were then washed twice with PBS containing 0.1% Triton-X100. Image acquisition in four channels was performed using a CV7000 spinning disk confocal system (Yokogawa Electric Corporation) with a 40 × 0.95 NA U-PlanApo objective and 2560 × 2160 pixel sCMOS camera. […] Fifty fields per well were imaged with quadruplicate wells for each condition. Image analysis was done using the CV7000 image analysis software (Yokogawa Electric Corporation). Between 100 and 1,000 mitotic cells per condition were segmented applying object identification parameters to select for bright MPM2 labeling. Using a nuclear identifier protocol, minimum intensity thresholds were set for pLATS2(Ser 83) and the pH3(Ser 28) signals, and the resulting identified objects were eroded, dilated, and filtered for size by user-defined thresholds. For only the MPM2-positive mitotic cells, the mean fluorescence intensity of the identified pLATS2(Ser 83) and pH3(Ser 28) objects was measured, and the average intensity per cell per well was calculated. The same thresholds were applied for all of the inhibitor-treated samples, which were processed, imaged, and analyzed in parallel with control DMSO-treated cells. Data were fit using a four-parameter, variable slope fit in Prism (GraphPad). Primary and secondary antibody dilutions can be found in Table S3 in Supplementary Material.

HeLa cells [2] = experiment: Cytokinesis assay (live imaging, YFP-α-tubulin; H2B-RFP), HeLa; assay type: cell-based, human; conditions: for IC50: Homo sapiens, HeLa, read-out: Cytokinesis IC50
[3] = tested on: pLATS2(Ser 83) in RPE1 cells; experiment: Substrate phosphorylation immunofluorescence assay, pLATS2(Ser 83), RPE1; assay type: cell-based, human; conditions: RPE1, 8 h inhibitor treatment; for IC50: Homo sapiens, RPE-1, read-out: pLATS2 (Ser83) IC50
Description: as §1, §2, §3

[4] = tested on: pH3(Ser 28) in RPE1 cells; experiment: Substrate phosphorylation immunofluorescence assay, pH3(Ser 28), RPE1; assay type: cell-based, human; conditions: Homo sapiens, read-out: pHistone H3 (Ser28) IC50
Description: (§4) After 8 h cells were fixed with 4% PFA for 20 min at room temperature. The fixed cells were washed with PBS. For immunostaining, cells were permeabilized and blocked with PBS containing 10% normal donkey serum (Jackson ImmunoResearch) and 0.1% Triton-X100 for 1 h at room temperature. Primary antibodies against phospho-LATS2 (Ser 83), phospho-histone H3(Ser 28), and anti-phospho-MPM2 (see Table S3 in Supplementary Material) were incubated for 1 h at room temperature. […] Cells were then washed twice with PBS containing 0.1% Triton-X100. […] Fifty fields per well were imaged with quadruplicate wells for each condition. Image analysis was done using the CV7000 image analysis software (Yokogawa Electric Corporation). Between 100 and 1,000 mitotic cells per condition were segmented applying object identification parameters to select for bright MPM2 labeling. Using a nuclear identifier protocol, minimum intensity thresholds were set for pLATS2(Ser 83) and the pH3(Ser 28) signals, and the resulting identified objects were eroded, dilated, and filtered for size by user-defined thresholds. […] The same thresholds were applied for all of the inhibitor-treated samples, which were processed, imaged, and analyzed in parallel with control DMSO-treated cells. Data were fit using a four-parameter, variable slope fit in Prism (GraphPad).

[5] = tested on: 363 human kinases (including Aurora A/B/C); experiment: biochemical; assay type: biochemical
Description: (§5) However, the Aurora A/B selectivity ratios derived from our in vitro and in vivo data can be compared to prioritize inhibitors.

[6] = biological target: 363 human kinases (including Aurora A/B/C) (Homo sapiens, UniProt Q16539); experiment: biochemical; assay type: biochemical; conditions: read-out: % Enzyme Activity (relative to DMSO controls)
Sequence of 363 human kinases (including Aurora A/B/C) (Homo sapiens, UniProt Q16539) (Q16539 whole entry): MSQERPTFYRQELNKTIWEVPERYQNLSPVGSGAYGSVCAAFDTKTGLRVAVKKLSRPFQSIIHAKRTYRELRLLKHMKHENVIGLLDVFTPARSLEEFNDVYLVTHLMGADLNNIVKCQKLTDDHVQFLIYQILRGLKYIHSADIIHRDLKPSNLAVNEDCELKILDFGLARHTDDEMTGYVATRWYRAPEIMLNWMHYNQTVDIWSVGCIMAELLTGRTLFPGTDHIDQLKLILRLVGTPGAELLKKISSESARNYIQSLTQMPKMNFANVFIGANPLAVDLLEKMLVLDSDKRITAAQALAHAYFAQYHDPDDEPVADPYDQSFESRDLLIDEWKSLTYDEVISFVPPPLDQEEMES
Description: as §5

[7] = tested on: pH3(Ser 28) in U2OS cells; experiment: Substrate phosphorylation immunofluorescence assay, pH3(Ser 28), U2OS; assay type: cell-based, human; conditions: Homo sapiens, read-out: pHistone H3 (Ser28) IC50
Description: as §4

[8] = tested on: HeLa, RPE1, and U2OS cells; experiment: Cellular proliferation analysis (ATPLite, 24 h); conditions: HeLa, RPE1, U2OS; 24 h (Figure 4D, Figure S2B)
[9] = tested on: pH3(Ser 28) in HeLa cells; experiment: Substrate phosphorylation immunofluorescence assay, pH3(Ser 28), HeLa; assay type: cell-based, human; conditions: for IC50: Homo sapiens, 8 h, read-out: pHistone H3 (Ser28) IC50
Description: as §4

[10] = tested on: pAuroraB(Thr 232), pH3(Ser 10), pH3(Ser 28) in HeLa cells; experiment: Immunoblotting of pAuroraB(Thr 232), pH3(Ser 28) and pH3(Ser 10); assay type: cell-based, human; conditions: immunoblot, dose–response
[11] = tested on: pLATS2(Ser 83) in U2OS cells; experiment: Substrate phosphorylation immunofluorescence assay, pLATS2(Ser 83), U2OS; assay type: cell-based, human; conditions: 8 h inhibitor treatment; for IC50: Homo sapiens, read-out: pLATS2 (Ser83) IC50
Description: as §1, §2, §3

U2OS cells [12] = experiment: Cytokinesis assay (live imaging, YFP-α-tubulin; H2B-RFP), U2OS; assay type: cell-based; conditions: Homo sapiens, read-out: Cytokinesis IC50
RPE1 cells [13] = experiment: Cytokinesis assay (live imaging, YFP-α-tubulin; H2B-RFP), RPE1; assay type: cell-based; conditions: Homo sapiens
[14] = tested on: pAuroraA(Thr 288) in HeLa cells; experiment: Immunoblotting of Aurora A activation loop phosphorylation; assay type: cell-based, human; conditions: immunoblot
[15] = biological target: T1, full-length human Aurora A (Homo sapiens, UniProt O14965); experiment: Aurora A kinase assay (ADP-Glo, Kemptide substrate); conditions: Aurora A Ki Mean ± SD, [ATP] = Km(ATP) (35 μM); Ki calculated from IC50 with tight-binding equation
T1 sequence (O14965 1-403): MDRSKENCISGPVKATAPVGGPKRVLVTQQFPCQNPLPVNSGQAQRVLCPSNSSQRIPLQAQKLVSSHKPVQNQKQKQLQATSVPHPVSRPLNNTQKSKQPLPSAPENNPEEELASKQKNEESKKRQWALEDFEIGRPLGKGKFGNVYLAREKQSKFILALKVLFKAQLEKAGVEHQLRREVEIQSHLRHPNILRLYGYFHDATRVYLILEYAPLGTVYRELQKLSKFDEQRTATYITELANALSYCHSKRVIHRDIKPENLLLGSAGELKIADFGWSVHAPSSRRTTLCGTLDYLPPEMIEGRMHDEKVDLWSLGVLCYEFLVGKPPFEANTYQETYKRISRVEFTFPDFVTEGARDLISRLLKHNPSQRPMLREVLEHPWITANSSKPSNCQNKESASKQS

Aurora B = conditions: read-out: Aurora B IC50 (Published), cited from earlier work
Aurora A/TPX2^1–43 = biological target: T2, Aurora A/TPX2^1–43 (Homo sapiens, UniProt O14965); experiment: Aurora A/TPX2^1–43 kinase assay (ADP-Glo); conditions: Aurora A-TPX2^1–43 Ki Mean ± SD, [ATP] = Km(ATP) (3 μM); 40 nM TPX2^1–43
T2 sequence (O14965 1-403): T1 sequence (O14965 1-403)
T2 sequence (Q9ULW0 1-43 partner limits assumed): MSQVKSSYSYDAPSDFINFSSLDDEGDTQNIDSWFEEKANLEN

Aurora A-TPX2 = conditions: cited from earlier work; for IC50: ref 121, read-out: Aurora A-TPX2 IC50 (Published)
Aurora B/INCENP^783–918 = biological target: T3, Aurora B/INCENP^783–918 (Homo sapiens, UniProt Q96GD4); experiment: Aurora B/INCENP^783–918 kinase assay (ADP-Glo); assay type: biochemical
T3 construct: purchased SignalChem
T3 sequence (Q96GD4 whole entry): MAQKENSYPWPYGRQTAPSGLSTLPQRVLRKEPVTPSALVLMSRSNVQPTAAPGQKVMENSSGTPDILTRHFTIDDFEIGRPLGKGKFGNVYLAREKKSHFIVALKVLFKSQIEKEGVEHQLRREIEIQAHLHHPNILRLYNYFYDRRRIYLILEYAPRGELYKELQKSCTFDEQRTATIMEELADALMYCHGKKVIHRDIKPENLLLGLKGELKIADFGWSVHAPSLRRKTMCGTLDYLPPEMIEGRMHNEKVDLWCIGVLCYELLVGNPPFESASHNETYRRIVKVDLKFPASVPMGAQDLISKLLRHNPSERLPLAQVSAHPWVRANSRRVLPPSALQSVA
T3 sequence (Q9NQS7 783-918 partner limits assumed): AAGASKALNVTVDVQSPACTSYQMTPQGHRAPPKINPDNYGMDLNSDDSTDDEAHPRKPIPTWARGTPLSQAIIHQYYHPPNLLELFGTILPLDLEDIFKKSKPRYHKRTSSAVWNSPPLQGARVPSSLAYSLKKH

HeLa cells [16] = experiment: G2 duration live imaging assay (GFP-PCNA; H2B-RFP), HeLa; assay type: cell-based, human; conditions: Homo sapiens, read-out: G2/M (G2 duration) IC50
RPE1 cells [17] = experiment: G2 duration live imaging assay (GFP-PCNA; H2B-RFP), RPE1; assay type: cell-based; conditions: Homo sapiens, RPE-1; RPE1; read-out: G2/M (G2 duration) IC50
U2OS cells [18] = experiment: G2 duration live imaging assay (GFP-PCNA; H2B-RFP), U2OS; assay type: cell-based; conditions: Homo sapiens, read-out: G2/M (G2 duration) IC50
Aurora A = conditions: read-out: Aurora A IC50 (Published), cited from earlier work
[19] = RPE-1, RPE1, cytokinesis failure, read-out: Cytokinesis IC50
[20] = fold difference in potency calculated by dividing Ki values, for GSK1070916 the Aurora B Ki of ref 61 was used
[21] = RPE-1, RPE1, 8 h inhibitor treatment

Structure (SMILES)	pLATS2 (Ser83) IC50 [1]	Concentration completely eliminating pH3(Ser 28) labeling without affecting pLATS2(Ser 83) labeling [9] [nM]	IC50 (HeLa cells [2]; cytokinesis failure) [nM]	IC50 ([9]; 8 h inhibitor treatment) [nM]	IC50 (U2OS cells [12]; cytokinesis failure) [nM]	IC50 (RPE1 cells [13]; [19]) [nM]	IC50 (Aurora A-TPX2) [nM]	Specificity window (pLATS2(Ser 83) versus pH3(Ser 28)) [1] [fold]	IC50 [1] [nM]	IC50 [3] [nM]	IC50 [4, 21] [nM]	IC50 (HeLa cells [16]) [nM]	IC50 (RPE1 cells [17]) [nM]	IC50 ([7]; 8 h inhibitor treatment) [nM]	IC50 (U2OS cells [18]) [nM]	IC50 [11] [nM]	further results
CCN(CCO)CCCOc1ccc2c(Nc3cc(CC(=O)Nc4cccc(F)c4)[nH]n3)ncnc2c1 [AZD1152-HQPA]	NE (100 nM); also recorded: NE@100 nM	< 100	–	–	–	–	–	–	–	–	–	–	–	–	–	–	IC50 (HeLa cells [2]): 4 nM; pLATS2 (Ser83) IC50 [3]: NE@200 nM; IC50 ([4]; RPE-1, 8 h): 25 nM; Kinases inhibited ≥65% of control [5]: Aurora B was the only enzyme; remaining activity at 0.1 µM [6]: 104%; IC50 ([7]; 8 h): 12 nM; Toxicity / cytotoxicity (cellular proliferation) [8]: not observed; IC50 [9]: 5 nM; Effect on pH3(Ser 10), pH3(Ser 28), pAuroraB(Thr 232) [10]: eliminated; pLATS2 (Ser83) IC50 [11]: NE@200 nM; IC50 (U2OS cells [12]): 20 nM; IC50 (RPE1 cells [13]; RPE-1, read-out: Cytokinesis IC50): 23 nM; Effect on Aurora A activity (pAuroraA Thr 288) ([14]; 300 nM (Figure S6)): did not; Effect on pAuroraA(Thr 288) ([14]; dose–response): did not affect
CCS(=O)(=O)Nc1ccc2c(c1)/C(=C(/Nc1ccc(CN3CCCCC3)cc1)c1ccccc1)C(=O)N2 [Hesperadin]	NE (100 nM); also recorded: NE@100 nM	< 100	14	14	17	47	11	–	–	–	–	–	–	–	–	–	Ki [15]: 1.21 ± 0.14 nM; Stability under long-term live imaging conditions (HeLa cells [2]; ability to block cytokesis over time in live imaging, cell line not specified): appeared to be unstable under live imaging conditions; also recorded: appears to be unstable under long-term live imaging conditions; IC50 (Aurora B; ref 45): 250 nM; IC50 (Aurora B; ref 121): 3 nM; Ki (Aurora A/TPX2^1–43): 1.37 ± 0.12 nM; Ki (Aurora B/INCENP^783–918; Aurora B-INCENP^783–918 Ki Mean ± SD, [ATP] = Km(ATP) (10 μM)): 0.03 ± 0.014 nM; Selectivity ratio Aur B-INCENP^783–918 versus Aur A (Aurora B/INCENP^783–918; [20]): 40.2 fold; Selectivity ratio Aur B-INCENP^783–918 versus Aur A-TPX2^1–43 (Aurora B/INCENP^783–918; [20]): 45.3 fold
O=C(O)c1ccc(Nc2ncc3c(n2)-c2ccc(Cl)cc2C(c2c(F)cccc2F)=NC3)cc1 [MLN8054]	–	–	–	2900	–	–	–	[…]	290	720	880	736	500	3300	957	800	Ki (Aurora A-TPX2; ref 71, read-out: Aurora A-TPX2 Ki (Published)): 3.3 nM; IC50 (Aurora A; ref 48): […]; IC50 (Aurora A; ref 59): […]
COc1cc(Nc2ncc3c(n2)-c2ccc(Cl)cc2C(c2c(F)cccc2OC)=NC3)ccc1C(=O)O [MLN8237]	–	–	–	160	–	–	–	4	37	130	130	128	115	210	157	92	–
Cc1cc(Nc2cc(N3CCN(C)CC3)nc(Sc3ccc(NC(=O)C4CC4)cc3)n2)[nH]n1 [VX-680]	–	–	–	45	–	–	–	–	150	–	–	–	–	–	–	–	IC50 (Aurora A; ref 119): […]
COc1cc2c(Nc3ccc(NC(=O)c4ccccc4)cc3)ncnc2cc1OCCCN1CCOCC1 [ZM447439]	NE (3 μM); also recorded: NE@3 μM	–	615	410	613	1320	360	–	–	–	–	–	–	–	–	–	–
